Test results: patent publication US12290519B2, “Anti-inflammatory coupling compound drug, and preparation method therefor and use thereof” (COVAL BIOPHARMA (SHANGHAI) CO., LTD., priority 2021, dated 2025)

Test: Hydrolysis rate / drug release rate of the compounds (release of JAK inhibitor, HPLC)
Format: physicochemical
Conditions: % release of JAK inhibitor from sample in acetonitrile/water=7/3 (v/v), 37° C. constant temperature shaker, sampled days 1-4, HPLC
Method: Analysis Method for Hydrolysis Rate of Compounds of the Present Invention
1. Preparation of Standard Working Curve Solution
(§1) About 10 mg of JAK inhibitors (tofacitinib and baricitinib) reference substances were weighed into a 25 mL volumetric flask, acetonitrile/water=7/3 (v/v) was added to dissolve and dilute to the marked volume, serving as a stock solution. The stock solution was diluted with a suitable dilution factor to obtain linear solutions of each concentration: 0.0002 mg/mL, 0.0004 mg/mL, 0.004 mg/mL, 0.04 mg/mL, and 0.08 mg/mL.
as §1, with “(Oclacitinib, Ruxolitinib, Delgocitinib,” for “(tofacitinib”, “Upadacitinib)” for “baricitinib)”
2. Preparation of Sample Solution
About 5 mg of the sample (the compound prepared in the present invention) was weighed into a 20 mL volumetric flask, acetonitrile/water=7/3 (v/v) was added to dissolve and dilute to the marked volume, serving as a stock solution. An appropriate amount of HPLC was loaded as the 0-day sample. The test solution was sealed with a sealing film and placed in a 37° C. constant temperature shaker. The test samples were taken at the same time on days 1, 2, 3, and 4 respectively. the release amount of JAK inhibitor in the sample was calculated according to the sample weight and JAK inhibitor standard curve.
3. Calculation Formula % Release of JAK Inhibitor r=100%×((AJAK Inhibitor−b)/a)/((W/20×M2/M1) wherein • AJAK inhibitor is the peak area of JAK inhibitor in the sample chromatogram • b is the intercept of the standard curve M1 is the molecular weight of the sample a is the slope of the standard curve
W is the sample weight (mg) M2 is the molecular weight of the JAK inhibitor
4. Chromatographic Conditions

Release Rate (%/day) | Compound
7.12 %/day | CC(C(=O)n1ccc2c(-c3cnn([C@H](CC#N)C4CCCC4)c3)ncnc21)c1cccc(C(=O)c2ccccc2)c1 (stereo partly drawn) [Ex. 32, (3R)-3-(4-(7-(2-(3-benzoylphenyl)propanoyl)-7H-pyrrolo [2,3-d]pyrimidin-4-yl)-1H-pyrazol-1-yl)-3-cyclopentylpropanenitrile]
5.01 %/day | CC(C(=O)n1ccc2c(-c3cnn([C@H](CC#N)C4CCCC4)c3)ncnc21)c1ccc(-c2ccccc2)c(F)c1 (stereo partly drawn) [Ex. 33, (3R)-3-cyclopentyl-3-(4-(7-(2-(2-fluoro-[1, 1′-biphenyl]-4-yl)propanoyl)-7H-pyrrolo [2,3-d]pyrimidin-4-yl)-1H-pyrazol-1-yl) propanenitrile]
1.57 %/day | CCC(C(=O)n1ccc2c(-c3cnn([C@H](CC#N)C4CCCC4)c3)ncnc21)c1ccc(N2Cc3ccccc3C2=O)cc1 (stereo partly drawn) [Ex. 34, (3R)-3-cyclopentyl-3-(4-(7-(2-(4-(1-oxoisoindolin-2-yl)phenyl)butanoyl)-7H-pyrrolo [2,3-d]pyrimidin-4-yl)-1H-pyrazol-1-yl) propanenitrile]
4.57 %/day | CCC(C(=O)n1ccc2c(N(C)C3CCC(CS(=O)(=O)NC)CC3)ncnc21)c1ccc(N2Cc3ccccc3C2=O)cc1 (stereo not drawn) [Ex. 35, N-methyl-1-((trans)-4-(methyl (7-(2-(4-(1-oxoisoindolin-2-yl)phenyl)butanoyl)-7H-pyrrolo [2,3-d]pyrimidin-4-yl)amino)cyclohexyl) methanesulfonamide]
14.98 %/day | CNS(=O)(=O)CC1CCC(N(C)c2ncnc3c2ccn3C(=O)C(C)c2ccc(-c3ccccc3)c(F)c2)CC1 (stereo not drawn) [Ex. 36, 1-((Trans)-4-((7-(2-(2-fluoro-[1, 1′-biphenyl]-4-yl)propanoyl)-7H-pyrrolo [2,3-d]pyrimidin-4-yl) (methyl)amino)cyclohexyl)-N-methyl methanesulfonamide]
1.05 %/day | CCc1cccc2c3c([nH]c12)C(CC)(CC(=O)n1ccc2c(N(C)C4CCC(CS(=O)(=O)NC)CC4)ncnc21)OCC3 (stereo not drawn) [Ex. 37, 1-((Trans)-4-((7-(2-(1,8-diethyl-1,3,4,9-tetrahydropyrano [3,4-b]indol-1-yl)acetyl)-7H-pyrrolo [2,3-d]pyrimidin-4-yl) (methyl)amino)cyclohexyl)-N-methyl methanesulfonamide]
18.42 %/day | CNS(=O)(=O)CC1CCC(N(C)c2ncnc3c2ccn3C(=O)C(C)c2cccc(C(=O)c3ccccc3)c2)CC1 (stereo not drawn) [Ex. 38, 1-((Trans)-4-((7-(2-(3-benzoylphenyl)propanoyl)-7H-pyrrolo [2,3-d]pyrimidin-4-yl) (methyl)amino)cyclohexyl)-N-methyl methanesulfonamide]
10.11 %/day | CNS(=O)(=O)CC1CCC(N(C)c2ncnc3c2ccn3C(=O)[C@@H](C)c2ccc3cc(OC)ccc3c2)CC1 (stereo partly drawn) [Ex. 39, 1-((Trans)-4-((7-((S)-2-(6-methoxynaphthalen-2-yl)propanoyl)-7H-pyrrolo [2,3-d]pyrimidin-4-yl) (methyl)amino)cyclohexyl)-N-methyl methanesulfonamide]
0.62 %/day | CCS(=O)(=O)N1CC(CC#N)(n2cc(-c3ncnc4c3ccn4C(=O)c3ccccc3Nc3cccc(Cl)c3C)cn2)C1 [Ex. 40, 2-(3-(4-(7-(2-((3-Chloro-2-methylphenyl)amino)benzoyl)-7H-pyrrolo [2,3-d]pyrimidin-4-yl)-1H-pyrazol-1-yl)-1-(ethylsulfonyl)azetidin-3-yl) acetonitrile]
4.27 %/day | CNS(=O)(=O)CC1CCC(N(C)c2ncnc3c2ccn3C(=O)c2ccccc2Nc2cccc(Cl)c2C)CC1 (stereo not drawn) [Ex. 41, 1-((Trans)-4-((7-(2-((3-chloro-2-methylphenyl)amino)benzoyl)-7H-pyrrolo [2,3-d]pyrimidin-4-yl) (methyl)amino)cyclohexyl)-N-methyl methanesulfonamide]
22.18 %/day | CNS(=O)(=O)C[C@H]1CC[C@H](N(C)c2ncnc3c2ccn3C(=O)Cc2c(C)n(C(=O)c3ccc(Cl)cc3)c3ccc(OC)cc23)CC1 [Ex. 42, 1-((Trans)-4-((7-(2-(1-(4-chlorobenzoyl)-5-methoxy-2-methyl-1H-indol-3-yl)acetyl)-7H-pyrrolo [2,3-d]pyrimidin-4-yl) (methyl)amino)cyclohexyl)-N-methylmethanesulfonamide]
2.99 %/day | CNS(=O)(=O)C[C@H]1CC[C@H](N(C)c2ncnc3c2ccn3C(=O)c2ccccc2Nc2cccc(C)c2C)CC1 [Ex. 43, 1-((trans)-4-((7-(2-((2,3-dimethylphenyl)amino)benzoyl)-7H-pyrrolo [2,3-d]pyrimidin-4-yl) (methyl)amino)cyclohexyl)-N-methyl methanesulfonamide]
10.18 %/day | CNS(=O)(=O)C[C@H]1CC[C@H](N(C)c2ncnc3c2ccn3C(=O)C(C)c2ccc(CC3CCCC3=O)cc2)CC1 (stereo partly drawn) [Ex. 44, N-methyl-1-((trans)-4-(methyl (7-(2-(4-((2-oxocyclopentyl)methyl)phenyl)propanoyl)-7H-pyrrolo [2,3-d]pyrimidin-4-yl)amino)cyclohexyl) methanesulfonamide]
1.93 %/day | CCc1cccc2c3c([nH]c12)C(CC)(CC(=O)n1ccc2c(-c4cnn([C@H](CC#N)C5CCCC5)c4)ncnc21)OCC3 (stereo partly drawn) [Ex. 45, (3R)-3-cyclopentyl-3-(4-(7-(2-(1,8-diethyl-1,3,4,9-tetrahydropyran [3,4-b]indol-1-yl)acetyl)-7H-pyrrolo [2,3-d]pyrimidin-4-yl)-1H-pyrazol-1-yl) propanenitrile]
25.52 %/day | CNS(=O)(=O)C[C@H]1CC[C@H](N(C)c2ncnc3c2ccn3C(=O)[C@@H](NC(=O)OC(C)(C)C)c2ccccc2)CC1 [Ex. 46, tert-butyl ((S)-2-(4-(methyl ((trans)-4-((N-methylsulfamoyl)methyl)cyclohexyl)amino)-7H-pyrrolo [2,3-d]pyrimidin-7-yl)-2-oxo-1-phenylethyl) carbamate]
0.36 %/day | CCS(=O)(=O)N1CC(CC#N)(n2cc(-c3ncnc4c3ccn4C(=O)c3ccccc3Nc3cccc(C)c3C)cn2)C1 [Ex. 47, 2-(3-(4-(7-(2-((2,3-Dimethylphenyl)amino)benzoyl)-7H-pyrrolo [2,3-d]pyrimidin-4-yl)-1H-pyrazol-1-yl)-1-(ethylsulfonyl)azetidin-3-yl) acetonitrile]
0.03 %/day | COc1ccc2cc([C@H](C)C(=O)OCn3ccc4c(N(C)[C@H]5CN(C(=O)CC#N)CC[C@H]5C)ncnc43)ccc2c1 [Ex. 48, 4-(((3R, 4R)-1-(2-cyanoacetyl)-4-methylpiperidin-3-yl) (methyl)amino)-7H-pyrrolo [2,3-d] pyrimidin-7-yl) methyl (S)-2-(6-methoxynaphthalen-2-yl) propanoate]
0.11 %/day | CC(C(=O)OCn1ccc2c(N(C)[C@H]3CN(C(=O)CC#N)CC[C@H]3C)ncnc21)c1cccc(C(=O)c2ccccc2)c1 (stereo partly drawn) [Ex. 49, (4-(((3R, 4R)-1-(2-cyanoacetyl)-4-methylpiperidin-3-yl) (methyl)amino)-7H-pyrrolo [2,3-d]pyrimidin-7-yl) methyl 2-(3-benzoylphenyl) propanoate]
